Measured values: PubChem BioAssay AID248 (DTP/NCI, 2004)
Where “and” joins values, the source holds several entries; their conditions need not be identical. Identical values can stand only once. Inconclusive results and toxic doses are left out.

System: L1210 leukemia ip in BDF1 mice, survival T/C
Test: NCI In Vivo Anticancer Drug Screen. Data for tumor model L1210 Leukemia (intraperitoneal) in B6D2F1 (BDF1) mice
Details: higher = longer survival
Method in brief: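 Antitumor effect is assessed in tumor-bearing animals. Survival in the compound arm is compared with a vehicle-dosed control arm and expressed as their quotient.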

SMILES: OC(C1CO1)C(O)C1CO1 (centres undefined)
- T/C (endpoint: mean survival time, dose: 0.25 mg/kg/injection, schedule: Q03HX008 (ip), vehicle: saline): 106 % of control
- T/C (endpoint: mean survival time, dose: 0.35 mg/kg/injection, schedule: Q01DX009 (ip), vehicle: saline): 94 % of control
- T/C (endpoint: mean survival time, dose: 0.5 mg/kg/injection, schedule: Q01DX009 (ip), vehicle: saline): 104 % of control
- T/C (endpoint: mean survival time, dose: 0.5 mg/kg/injection, schedule: Q03HX008 (ip), vehicle: saline): 115 % of control
- T/C (endpoint: mean survival time, dose: 0.52 mg/kg/injection, schedule: Q01DX009 (ip), vehicle: saline): 97 % of control
- T/C (endpoint: mean survival time, dose: 0.61 mg/kg/injection, schedule: Q04DX003 (ip), vehicle: saline): 104 % of control
- T/C (endpoint: mean survival time, dose: 0.65 mg/kg/injection, schedule: Q01DX009 (ip), vehicle: water): 110 % of control
- T/C (endpoint: mean survival time, dose: 0.96 mg/kg/injection, schedule: Q01DX001 (ip), vehicle: saline): 119 % of control
- T/C (endpoint: mean survival time, dose: 1.0 mg/kg/injection, schedule: Q01DX009 (sc), vehicle: saline): 121 % of control
- T/C (endpoint: mean survival time, dose: 1.0 mg/kg/injection, schedule: Q03HX016 (ip), vehicle: saline): 160 % of control
- T/C (endpoint: mean survival time, dose: 1.0 mg/kg/injection, schedule: Q03HX024 (ip), vehicle: saline): 170 % of control
- T/C (endpoint: mean survival time, dose: 1.0 mg/kg/injection, schedule: Q04DX003 (ip), vehicle: saline): 110 % of control and 116 % of control
- T/C (endpoint: mean survival time, dose: 1.25 mg/kg/injection, schedule: Q04DX003 (ip), vehicle: saline): 104 % of control
- T/C (endpoint: mean survival time, dose: 1.3 mg/kg/injection, schedule: Q01DX009 (ip), vehicle: saline): 175 % of control
- T/C (endpoint: mean survival time, dose: 1.4 mg/kg/injection, schedule: Q01DX001 (ip), vehicle: saline): 119 % of control
- T/C (endpoint: mean survival time, dose: 1.4 mg/kg/injection, schedule: Q01DX009 (ip), vehicle: saline): 184 % of control
- T/C (endpoint: mean survival time, dose: 1.6 mg/kg/injection, schedule: Q01DX009 (ip), vehicle: water): 102 % of control
- T/C (endpoint: mean survival time, dose: 1.87 mg/kg/injection, schedule: Q01DX001 (ip), vehicle: saline): 110 % of control
- T/C (endpoint: mean survival time, dose: 2.0 mg/kg/injection, schedule: Q01DX001 (ip), vehicle: saline): 116 % of control
- T/C (endpoint: mean survival time, dose: 2.0 mg/kg/injection, schedule: Q03HX008 (ip), vehicle: saline): 227 % of control
- T/C (endpoint: mean survival time, dose: 2.0 mg/kg/injection, schedule: Q03HX016 (ip), vehicle: saline): 218 % of control
- T/C (endpoint: mean survival time, dose: 2.0 mg/kg/injection, schedule: Q03HX024 (ip), vehicle: saline): 105 % of control
- T/C (endpoint: mean survival time, dose: 2.0 mg/kg/injection, schedule: Q04DX003 (ip), vehicle: saline): 123 % of control
- T/C (endpoint: mean survival time, dose: 2.0 mg/kg/injection, schedule: Q08DX002 (ip), vehicle: saline): 113 % of control
- T/C (endpoint: mean survival time, dose: 2.5 mg/kg/injection, schedule: Q01DX009 (ip), vehicle: saline): 118 % of control
- T/C (endpoint: mean survival time, dose: 2.5 mg/kg/injection, schedule: Q04DX003 (ip), vehicle: saline): 105 % of control and 115 % of control
- T/C (endpoint: mean survival time, dose: 3.0 mg/kg/injection, schedule: Q01DX009 (ip), vehicle: saline): 163 % of control and 186 % of control and 193 % of control
- T/C (endpoint: mean survival time, dose: 3.0 mg/kg/injection, schedule: Q01DX009 (ip), vehicle: water): 224 % of control
- T/C (endpoint: mean survival time, dose: 3.2 mg/kg/injection, schedule: Q01DX009 (ip), vehicle: saline): 120 % of control
- T/C (endpoint: mean survival time, dose: 3.3 mg/kg/injection, schedule: Q01DX001 (ip), vehicle: saline): 154 % of control
- T/C (endpoint: mean survival time, dose: 3.75 mg/kg/injection, schedule: Q01DX001 (ip), vehicle: saline): 118 % of control
- T/C (endpoint: mean survival time, dose: 4.0 mg/kg/injection, schedule: Q01DX001 (sc), vehicle: saline): 115 % of control
- T/C (endpoint: mean survival time, dose: 4.0 mg/kg/injection, schedule: Q01DX009 (ip), vehicle: saline): 160 % of control
- T/C (endpoint: mean survival time, dose: 4.0 mg/kg/injection, schedule: Q04DX003 (ip), vehicle: saline): 168 % of control and 170 % of control and 198 % of control
- T/C (endpoint: mean survival time, dose: 4.0 mg/kg/injection, schedule: Q08DX002 (ip), vehicle: saline): 155 % of control
- T/C (endpoint: mean survival time, dose: 4.6 mg/kg/injection, schedule: Q01DX001 (ip), vehicle: saline): 113 % of control
- T/C (endpoint: mean survival time, dose: 4.6 mg/kg/injection, schedule: Q01DX009 (ip), vehicle: saline): 89 % of control
- T/C (endpoint: mean survival time, dose: 4.6 mg/kg/injection, schedule: Q04DX003 (ip), vehicle: saline): 242 % of control and 112 % of control
- T/C (endpoint: mean survival time, dose: 4.6 mg/kg/injection, schedule: Q08DX002 (ip), vehicle: saline): 163 % of control
- T/C (endpoint: mean survival time, dose: 5.0 mg/kg/injection, schedule: Q01DX001 (ip), vehicle: saline): 214 % of control
- T/C (endpoint: mean survival time, dose: 5.0 mg/kg/injection, schedule: Q01DX009 (ip), vehicle: saline): 95 % of control and 204 % of control and 255 % of control
- T/C (endpoint: mean survival time, dose: 5.0 mg/kg/injection, schedule: Q01DX009 (ip), vehicle: water): 108 % of control
- T/C (endpoint: mean survival time, dose: 5.0 mg/kg/injection, schedule: Q04DX003 (ip), vehicle: saline): 124 % of control
- T/C (endpoint: mean survival time, dose: 6.7 mg/kg/injection, schedule: Q04DX003 (ip), vehicle: saline): 195 % of control and 227 % of control
- T/C (endpoint: mean survival time, dose: 7.0 mg/kg/injection, schedule: Q01DX001 (ip), vehicle: saline): 157 % of control and 240 % of control and 117 % of control
- T/C (endpoint: mean survival time, dose: 7.0 mg/kg/injection, schedule: Q01DX009 (ip), vehicle: saline): 97 % of control and 115 % of control
- T/C (endpoint: mean survival time, dose: 7.0 mg/kg/injection, schedule: Q04DX003 (ip), vehicle: saline): 284 % of control and 122 % of control
- T/C (endpoint: mean survival time, dose: 7.0 mg/kg/injection, schedule: Q08DX002 (ip), vehicle: saline): 191 % of control
- T/C (endpoint: mean survival time, dose: 7.5 mg/kg/injection, schedule: Q01DX001 (ip), vehicle: saline): 185 % of control
- T/C (endpoint: mean survival time, dose: 7.5 mg/kg/injection, schedule: Q01DX009 (ip), vehicle: saline): 169 % of control
- T/C (endpoint: mean survival time, dose: 8.0 mg/kg/injection, schedule: Q01DX001 (ip), vehicle: saline): 158 % of control
- T/C (endpoint: mean survival time, dose: 8.0 mg/kg/injection, schedule: Q01DX001 (oral), vehicle: saline): 200 % of control
- T/C (endpoint: mean survival time, dose: 8.0 mg/kg/injection, schedule: Q04DX003 (ip), vehicle: saline): 300 % of control and 304 % of control
- T/C (endpoint: mean survival time, dose: 8.0 mg/kg/injection, schedule: Q08DX002 (ip), vehicle: saline): 193 % of control
- T/C (endpoint: mean survival time, dose: 10.0 mg/kg/injection, schedule: Q01DX009 (ip), vehicle: saline): 88 % of control
- T/C (endpoint: mean survival time, dose: 10.0 mg/kg/injection, schedule: Q04DX003 (ip), vehicle: saline): 404 % of control and 448 % of control and 471 % of control
- T/C (endpoint: mean survival time, dose: 10.6 mg/kg/injection, schedule: Q01DX001 (ip), vehicle: saline): 308 % of control and 105 % of control
- T/C (endpoint: mean survival time, dose: 11.25 mg/kg/injection, schedule: Q01DX009 (ip), vehicle: saline): 91 % of control
- T/C (endpoint: mean survival time, dose: 12.5 mg/kg/injection, schedule: Q01DX009 (ip), vehicle: saline): 110 % of control
- T/C (endpoint: mean survival time, dose: 15.0 mg/kg/injection, schedule: Q04DX003 (ip), vehicle: saline): 161 % of control and 172 % of control and 368 % of control
- T/C (endpoint: mean survival time, dose: 16.0 mg/kg/injection, schedule: Q01DX001 (ip), vehicle: saline): 368 % of control
- T/C (endpoint: mean survival time, dose: 16.0 mg/kg/injection, schedule: Q01DX001 (sc), vehicle: saline): 180 % of control
- T/C (endpoint: mean survival time, dose: 24.0 mg/kg/injection, schedule: Q04DX003 (ip), vehicle: saline): 191 % of control
- T/C (endpoint: mean survival time, dose: 64.0 mg/kg/injection, schedule: Q01DX001 (ip), vehicle: saline): 97 % of control
- T/C (endpoint: mean survival time, dose: 118.0 mg/kg/injection, schedule: Q08DX002 (ip), vehicle: saline): 105 % of control
- T/C (endpoint: median survival time, dose: 1.0 mg/kg/injection, schedule: Q01DX009 (sc), vehicle: water): 111 % of control
- T/C (endpoint: median survival time, dose: 2.0 mg/kg/injection, schedule: Q01DX009 (ip), vehicle: water): 188 % of control
- T/C (endpoint: median survival time, dose: 2.0 mg/kg/injection, schedule: Q04DX003 (ip), vehicle: water): 122 % of control
- T/C (endpoint: median survival time, dose: 2.0 mg/kg/injection, schedule: Q04DX003 (sc), vehicle: water): 111 % of control
- T/C (endpoint: median survival time, dose: 2.5 mg/kg/injection, schedule: Q01DX001 (ip), vehicle: water): 122 % of control
- T/C (endpoint: median survival time, dose: 4.0 mg/kg/injection, schedule: Q01DX009 (ip), vehicle: water): 116 % of control
- T/C (endpoint: median survival time, dose: 4.0 mg/kg/injection, schedule: Q01DX009 (sc), vehicle: water): 105 % of control
- T/C (endpoint: median survival time, dose: 4.0 mg/kg/injection, schedule: Q04DX003 (ip), vehicle: water): 166 % of control
- T/C (endpoint: median survival time, dose: 4.0 mg/kg/injection, schedule: Q04DX003 (sc), vehicle: water): 155 % of control
- T/C (endpoint: median survival time, dose: 8.0 mg/kg/injection, schedule: Q04DX003 (ip), vehicle: water): 94 % of control
- T/C (endpoint: median survival time, dose: 8.0 mg/kg/injection, schedule: Q04DX003 (sc), vehicle: water): 100 % of control
- T/C (endpoint: median survival time, dose: 10.0 mg/kg/injection, schedule: Q01DX001 (ip), vehicle: water): 154 % of control
- T/C (endpoint: median survival time, dose: 20.0 mg/kg/injection, schedule: Q01DX001 (ip), vehicle: water): 103 % of control
- T/C (endpoint: median survival time, dose: 40.0 mg/kg/injection, schedule: Q01DX001 (ip), vehicle: water): 99 % of control
